Source: US20040037799A1, “Malodor suppression by fragrance composition” (priority 2002, published 2004)

Experiments:
[1] = Malodor coverage by individual fragrance materials (Table 1)
[2] = Air diffusion coefficient of perfume materials; type: physicochemical

Molecule | Average Coverage ([1]; tested only at 5 and 38 C) | Air Diffusion Coefficient [2] | Average Coverage ([1]; scale not defined)
C=C1C2CCC(C2)C1(C)C (stereo not shown) | 3.0 | 0.0613 cm²/s | –
c1ccc(CCOC2CCCCC2)cc1 | – | 0.0477 cm²/s | 2.3
CCCCCCCCCCC=CC#N | – | 0.0432 cm²/s | 3.0
CC(=O)O[C@@H]1C[C@H]2CC[C@]1(C)C2(C)C (racemic) [ISO BORNYL ACETATE] | – | 0.0492 cm²/s | 2.6
C=CCOC(=O)CCC1CCCCC1 [ALLYL CYCLOHEXYL PROPIONATE] | – | 0.0486 cm²/s | 2.6
C=CCOC(=O)CCCCCC [ALLYL HEPTOATE (C-7), ALLYL HEPTOATE] | – | 0.0523 cm²/s | 2.6
CC(C)CCOCCc1ccccc1 [ANTHER] | – | 0.0486 cm²/s | 2.6
O=Cc1ccccc1 [BENZALDEHYDE] | – | 0.075 cm²/s | –
CO[C@]1(C)CC[C@@]23C[C@@H]1C(C)(C)[C@@H]2CC[C@H]3C [CEDRAMBER] | – | – | 2.3
C[C@@H]1CC[C@H]2C(C)(C)[C@H]3C[C@@]12CC[C@@]3(C)O [CEDROL LIQUID 10%, CEDROL] | – | 0.0425 cm²/s | 3.3
CCCCCCCCCCCC#N [CLONAL] | – | 0.0466 cm²/s | 3.0
OCCC1CCCCC1 [CYCLOHEXYL ETHANOL] | – | 0.0629 cm²/s | 2.0
CCCCCC1CCCC1=O (stereo not shown) [DELPHONE, FIRMENICH] | – | 0.0546 cm²/s | 4.0
CC1CCC(C(C)(C)O)CC1 (stereo not shown) [DIHYDRO TERPINEOL] | – | 0.0547 cm²/s | 2.0
CCOC(=O)CC(C)=O [ETHYL ACETOACETATE] | – | 0.0554 cm²/s | 1.6
CCc1ccc(CC(C)(C)C=O)cc1 [FLORAZONE] | – | 0.0499 cm²/s | 3.6
CC(C)CC1CC(C)(O)CCO1 (stereo not shown) [FLOROL] | – | 0.0521 cm²/s | 3.0
CC(=O)OC/C=C(\C)CCC=C(C)C [GERANYL ACETATE] | – | 0.0478 cm²/s | 1.0
CCCCCCC(C=O)=Cc1ccccc1 [HEXYL CINNAMIC ALDEHYDE] | – | 0.0445 cm²/s | 2.3

Molecule | Average Coverage ([1]; tested only at 5 and 38 C) | Air Diffusion Coefficient [2] | Average Coverage ([1]; scale not defined)
CC(=O)C1(C)CC2=C(CCCC2(C)C)CC1C (stereo not shown) [ISO E SUPER] | – | 0.0418 cm²/s | 3.3
CC(C=O)Cc1ccc(C(C)(C)C)cc1 (stereo not shown) [LILIAL] | – | 0.047 cm²/s | 2.6
CC(C)C1CCC(CO)CC1 (stereo not shown) [MAYOL] | – | 0.0545 cm²/s | 2.3
CC(C)=CCCC(C)C=O (stereo not shown) [MELONAL] | – | 0.0579 cm²/s | 2.0
C=CCc1ccc(OC)cc1 [METHYL CHAVICOL] | – | 0.0591 cm²/s | 2.3
COc1ccc2ccccc2c1 [NEROLIN YARA YARA 10%] | – | – | 2.6
COC(Cc1ccccc1)OC [PADMA] | – | 0.0571 cm²/s | 3.3
CC(C)OCCc1ccccc1 [PETIOLE] | – | – | 2.6
OCCc1ccccc1 [PHENYL ETHYL ALCOHOL] | – | 0.0676 cm²/s | 4.3
CC(=O)OCC=C(C)C [PRENYL ACETATE] | – | 0.0649 cm²/s | 1.0
CC1CC(C)(c2ccccc2)CO1 (stereo not shown) [RHUBAFURAN] | – | – | 2.6
CC1=CCC2C3CC(C2C1)C1(C3)OC1C (stereo not shown) [RHUBOFIX] | – | – | 3.0
CC/C(=C\CC1CC=C(C)C1(C)C)CO (stereo not shown) [SANDRANOL] | – | 0.0444 cm²/s | 3.3
CCC(C)(O)CCCC(C)C (stereo not shown) [TETRAHYDRO LINAILOOL] | – | 0.0533 cm²/s | 2.6
CC(=O)c1cc2c(cc1C)C(C)(C)C(C)CC2(C)C (stereo not shown) [TONALID 10%] | – | – | 2.0
CCCCCC1(C)CCC(C)(C)C1=O (stereo not shown) [VELOUTONE] | – | 0.0459 cm²/s | 3.0
METHYL IONONE GAMMA | – | 0.0453 cm²/s | 3.3
METHYL NAPTHYL KETONE [METHYL NAPTHYL KETONE 10%] | – | 0.0552 cm²/s | 2.0
